The source made the active and inactive calls. The rule behind the calls is not given here. Numbered stars: 1 amine (or outer) side, 2 acyl side, 3 side chain; on linkers, the order of the positions; unused ones are H or OH. Bridge positions count the residues as written; N and C are the ends. Square brackets hold non-standard residues; d marks the D form. Peptide text beside a SMILES is read from it. * marks the point of attachment. pTerphenylCO(4''-OnC5H11) = CCCCCOc1ccc(-c2ccc(-c3ccc(C(=O)*)cc3)cc2)cc1; Orn(4R-OH,5R-OH) = O=C([C@H](C[C@@H](O)[C@@H](O)N[*:3])N[*:1])[*:2]; hTyr(3S-OH,4S-OH) = N[C@H](C(=O)O)[C@H](O)[C@@H](O)c1ccc(O)cc1; Pro(3S-OH,4S-Me) = C[C@H]1CN[C@H](C(=O)O)[C@H]1O; Hyp = O=C(O)[C@@H]1C[C@@H](O)CN1
Columns and labels:
Aspergillus terreus [1] = assay: Increase in metabolic activity of germinated Aspergillus terreus assessed as formation of short, stubby aberrant hyphae at 0.03 ug/mL after 48 hrs by XTT assay; type: functional, organism-based
Aspergillus flavus [2] = assay: Antifungal activity against nongerminated Aspergillus flavus assessed as absence of visual fungal growth at 64 ug/mL; type: functional, organism-based
Aspergillus fumigatus [3] = assay: Increase in metabolic activity of germinated Aspergillus fumigatus assessed as elongation of short, stubby aberrant hyphae at 2 ug/mL after 48 hrs by XTT assay; type: functional, organism-based
Aspergillus flavus [4] = assay: Antifungal activity against germinated Aspergillus flavus assessed as lowest drug concentration that produced short, stubby and highly branched hyphae after 48 hrs by microscopic analysis; type: functional; conditions: read-out: MEC
Aspergillus fumigatus [5] = assay: Induction of maximal metabolic inhibition in germinated Aspergillus fumigatus assessed as minimal metabolic activity Ymin after 2 hrs by XTT assay; type: functional; design: scale not given: the % may be the effect or the level left
Aspergillus fumigatus [6] = assay: Antifungal activity against germinated Aspergillus fumigatus assessed as absence of visual fungal growth at 64 ug/mL; type: functional, organism-based
Aspergillus fumigatus [7] = assay: Increase in metabolic activity of germinated Aspergillus fumigatus assessed as elongation of short, stubby aberrant hyphae at 16 ug/mL after 48 hrs by XTT assay; type: functional, organism-based
Aspergillus flavus [8] = assay: Ratio of log2 of MEC for germinated Aspergillus flavus to log2 of MEC for nongerminated Aspergillus flavus; type: functional
Aspergillus terreus [9] = assay: Effect on Aspergillus terreus metabolic activity assessed number of twofold drug dilutions required for germinated fungal metabolic activity to nongerminated fungal metabolic activity; type: functional
Aspergillus flavus [10] = assay: Antifungal activity against germinated Aspergillus flavus assessed as absence of visual fungal growth at 128 ug/mL; type: functional, organism-based
Aspergillus terreus [11] = assay: Increase in metabolic activity of nongerminated Aspergillus terreus assessed as formation of short, stubby aberrant hyphae at 0.03 ug/mL after 48 hrs by XTT assay; type: functional, organism-based
Aspergillus fumigatus [12] = assay: Increase in metabolic activity of germinated Aspergillus fumigatus assessed as formation of short, stubby aberrant hyphae at 0.03 ug/mL after 48 hrs by XTT assay; type: functional, organism-based
Aspergillus fumigatus [13] = assay: Effect on nongerminated Aspergillus fumigatus metabolic activity assessed as drug concentration at which fungal metabolic activity occurs after 2 hrs by XTT assay; type: functional
Aspergillus terreus [14] = assay: Ratio of log2 of MEC for germinated Aspergillus terreus to log2 of MEC for nongerminated Aspergillus terreus; type: functional
Aspergillus terreus [15] = assay: Increase in metabolic activity of nongerminated Aspergillus terreus assessed as elongation of short, stubby aberrant hyphae at 2 ug/mL after 48 hrs by XTT assay; type: functional, organism-based
Aspergillus terreus [16] = assay: Antifungal activity against germinated Aspergillus terreus assessed as lowest drug concentration that produced short, stubby and highly branched hyphae after 48 hrs by microscopic analysis; type: functional; conditions: read-out: MEC
Aspergillus terreus [17] = assay: Antifungal activity against nongerminated Aspergillus terreus assessed as lowest drug concentration that produced short, stubby and highly branched hyphae after 48 hrs by microscopic analysis; type: functional; conditions: read-out: MEC
Aspergillus fumigatus [18] = assay: Increase in metabolic activity of nongerminated Aspergillus fumigatus elongation of short, stubby aberrant hyphae at 16 ug/mL after 48 hrs by XTT assay; type: functional, organism-based
Aspergillus fumigatus [19] = assay: Increase in metabolic activity of nongerminated Aspergillus fumigatus assessed as elongation of short, stubby aberrant hyphae at 2 ug/mL after 48 hrs by XTT assay; type: functional, organism-based
Aspergillus flavus [20] = assay: Antifungal activity against nongerminated Aspergillus flavus assessed as lowest drug concentration that produced short, stubby and highly branched hyphae after 48 hrs by microscopic analysis; type: functional; conditions: read-out: MEC
Aspergillus fumigatus [21] = assay: Effect on Aspergillus fumigatus metabolic activity assessed number of twofold drug dilutions required for germinated fungal metabolic activity to nongerminated fungal metabolic activity; type: functional
Aspergillus flavus [22] = assay: Effect on Aspergillus flavus metabolic activity assessed number of twofold drug dilutions required for germinated fungal metabolic activity to nongerminated fungal metabolic activity; type: functional
Aspergillus flavus [23] = assay: Increase in metabolic activity of nongerminated Aspergillus flavus assessed as elongation of short, stubby aberrant hyphae at 16 ug/mL after 48 hrs by XTT assay; type: functional, organism-based
Aspergillus flavus [24] = assay: Induction of maximal metabolic inhibition in germinated Aspergillus flavus assessed as minimal metabolic activity Ymin after 2 hrs by XTT assay; type: functional; design: scale not given: the % may be the effect or the level left
Aspergillus terreus [25] = assay: Induction of maximal metabolic inhibition in nongerminated Aspergillus terreus assessed as minimal metabolic activity Ymin after 2 hrs by XTT assay; type: functional; design: scale not given: the % may be the effect or the level left
Aspergillus terreus [26] = assay: Increase in metabolic activity of germinated Aspergillus terreus assessed as elongation of short, stubby aberrant hyphae at 2 ug/mL after 48 hrs by XTT assay; type: functional, organism-based
Aspergillus flavus [27] = assay: Increase in metabolic activity of germinated Aspergillus flavus assessed as formation of short, stubby aberrant hyphae at 0.03 ug/mL after 48 hrs by XTT assay; type: functional, organism-based
Aspergillus flavus [28] = assay: Increase in metabolic activity of nongerminated Aspergillus flavus assessed as formation of short, stubby aberrant hyphae at 0.03 ug/mL after 48 hrs by XTT assay; type: functional, organism-based
Aspergillus terreus [29] = assay: Increase in metabolic activity of germinated Aspergillus terreus assessed as elongation of short, stubby aberrant hyphae at 16 ug/mL after 48 hrs by XTT assay; type: functional, organism-based
Aspergillus flavus [30] = assay: Increase in metabolic activity of germinated Aspergillus flavus assessed as elongation of short, stubby aberrant hyphae at 16 ug/mL after 48 hrs by XTT assay; type: functional, organism-based
Aspergillus terreus [31] = assay: Effect on germinated Aspergillus terreus metabolic activity assessed as drug concentration at which fungal metabolic activity occurs after 2 hrs by XTT assay; type: functional
Aspergillus fumigatus [32] = assay: Increase in metabolic activity of nongerminated Aspergillus fumigatus assessed as formation of short, stubby aberrant hyphae at 0.03 ug/mL after 48 hrs by XTT assay; type: functional, organism-based
Aspergillus fumigatus [33] = assay: Effect on germinated Aspergillus fumigatus metabolic activity assessed as drug concentration at which fungal metabolic activity occurs after 2 hrs by XTT assay; type: functional
Aspergillus flavus [34] = assay: Increase in metabolic activity of germinated Aspergillus flavus assessed as elongation of short, stubby aberrant hyphae at 2 ug/mL after 48 hrs by XTT assay; type: functional, organism-based
Aspergillus terreus [35] = assay: Antifungal activity against nongerminated Aspergillus terreus assessed as absence of visual fungal growth at 128 ug/mL; type: functional, organism-based
Aspergillus flavus [36] = assay: Induction of maximal metabolic inhibition in nongerminated Aspergillus flavus assessed as minimal metabolic activity Ymin after 2 hrs by XTT assay; type: functional; design: scale not given: the % may be the effect or the level left
Aspergillus flavus [37] = assay: Antifungal activity against germinated Aspergillus flavus assessed as absence of visual fungal growth at 64 ug/mL; type: functional, organism-based
Aspergillus terreus [38] = assay: Antifungal activity against nongerminated Aspergillus terreus assessed as absence of visual fungal growth at 64 ug/mL; type: functional, organism-based
Aspergillus flavus [39] = assay: Increase in metabolic activity of nongerminated Aspergillus flavus assessed as elongation of short, stubby aberrant hyphae at 2 ug/mL after 48 hrs by XTT assay; type: functional, organism-based
Aspergillus terreus [40] = assay: Effect on nongerminated Aspergillus terreus metabolic activity assessed as drug concentration at which fungal metabolic activity occurs after 2 hrs by XTT assay; type: functional
Aspergillus fumigatus [41] = assay: Ratio of log2 of MEC for germinated Aspergillus fumigatus to log2 of MEC for nongerminated Aspergillus fumigatus; type: functional
Aspergillus terreus [42] = assay: Induction of maximal metabolic inhibition in germinated Aspergillus terreus assessed as minimal metabolic activity Ymin after 2 hrs by XTT assay; type: functional; design: scale not given: the % may be the effect or the level left
Aspergillus fumigatus [43] = assay: Antifungal activity against germinated Aspergillus fumigatus assessed as lowest drug concentration that produced short, stubby and highly branched hyphae after 48 hrs by microscopic analysis; type: functional; conditions: read-out: MEC
Aspergillus terreus [44] = assay: Antifungal activity against germinated Aspergillus terreus assessed as absence of visual fungal growth at 128 ug/mL; type: functional, organism-based
Aspergillus flavus [45] = assay: Antifungal activity against nongerminated Aspergillus flavus assessed as absence of visual fungal growth at 128 ug/mL; type: functional, organism-based
Aspergillus flavus [46] = assay: Effect on germinated Aspergillus flavus metabolic activity assessed as drug concentration at which fungal metabolic activity occurs after 2 hrs by XTT assay; type: functional
Aspergillus terreus [47] = assay: Increase in metabolic activity of nongerminated Aspergillus terreus assessed as elongation of short, stubby aberrant hyphae at 16 ug/mL after 48 hrs by XTT assay; type: functional, organism-based
Aspergillus terreus [48] = assay: Antifungal activity against germinated Aspergillus terreus assessed as absence of visual fungal growth at 64 ug/mL; type: functional, organism-based
Aspergillus fumigatus [49] = assay: Antifungal activity against nongerminated Aspergillus fumigatus assessed as absence of visual fungal growth at 128 ug/mL; type: functional, organism-based
Aspergillus fumigatus [50] = assay: Antifungal activity against nongerminated Aspergillus fumigatus assessed as absence of visual fungal growth at 64 ug/mL; type: functional, organism-based
Aspergillus fumigatus [51] = assay: Induction of maximal metabolic inhibition in nongerminated Aspergillus fumigatus assessed as minimal metabolic activity Ymin after 2 hrs by XTT assay; type: functional; design: scale not given: the % may be the effect or the level left
Aspergillus fumigatus [52] = assay: Antifungal activity against germinated Aspergillus fumigatus assessed as absence of visual fungal growth at 128 ug/mL; type: functional, organism-based
Aspergillus fumigatus [53] = assay: Antifungal activity against nongerminated Aspergillus fumigatus assessed as lowest drug concentration that produced short, stubby and highly branched hyphae after 48 hrs by microscopic analysis; type: functional; conditions: read-out: MEC
Aspergillus flavus [54] = assay: Effect on nongerminated Aspergillus flavus metabolic activity assessed as drug concentration at which fungal metabolic activity occurs after 2 hrs by XTT assay; type: functional

SMILES: CCCCCOc1ccc(-c2ccc(-c3ccc(C(=O)N[C@H]4C[C@@H](O)[C@@H](O)NC(=O)[C@@H]5[C@@H](O)[C@@H](C)CN5C(=O)[C@H]([C@@H](C)O)NC(=O)[C@H]([C@H](O)[C@@H](O)c5ccc(O)cc5)NC(=O)[C@@H]5C[C@@H](O)CN5C(=O)[C@H]([C@@H](C)O)NC4=O)cc3)cc2)cc1 [ANIDULAFUNGIN] ({pTerphenylCO(4''-OnC5H11)}-[Orn(4R-OH,5R-OH)]T[Hyp][hTyr(3S-OH,4S-OH)]T[Pro(3S-OH,4S-Me)]; lactam 1-C)
- Activity (Aspergillus terreus [1]): Active
- Activity (Aspergillus flavus [2]): inactive
- Activity (Aspergillus fumigatus [3]): Active
- minimal effective concentration (Aspergillus flavus [4]): 0.25 µg/mL
- Activity (Aspergillus fumigatus [5]): 36%
- Activity (Aspergillus fumigatus [6]): inactive
- Activity (Aspergillus fumigatus [7]): Active
- Ratio (Aspergillus flavus [8]): 2.5
- Ratio (Aspergillus terreus [9]): 2.97
- Activity (Aspergillus flavus [10]): inactive
- Activity (Aspergillus terreus [11]): Active
- Activity (Aspergillus fumigatus [12]): Active
- EC5 (Aspergillus fumigatus [13]): 0.03 µg/mL
- Ratio (Aspergillus terreus [14]): 3
- Activity (Aspergillus terreus [15]): Active
- minimal effective concentration (Aspergillus terreus [16]): 0.25 µg/mL
- minimal effective concentration (Aspergillus terreus [17]): 0.03 µg/mL
- Activity (Aspergillus fumigatus [18]): Active
- Activity (Aspergillus fumigatus [19]): Active
- minimal effective concentration (Aspergillus flavus [20]): 0.03 µg/mL
- Ratio (Aspergillus fumigatus [21]): 2.4
- Ratio (Aspergillus flavus [22]): 2.96
- Activity (Aspergillus flavus [23]): Active
- Activity (Aspergillus flavus [24]): 16%
- Activity (Aspergillus terreus [25]): 30%
- Activity (Aspergillus terreus [26]): Active
- Activity (Aspergillus flavus [27]): Active
- Activity (Aspergillus flavus [28]): Active
- Activity (Aspergillus terreus [29]): Active
- Activity (Aspergillus flavus [30]): Active
- EC5 (Aspergillus terreus [31]): 0.1 µg/mL
- Activity (Aspergillus fumigatus [32]): Active
- EC5 (Aspergillus fumigatus [33]): 0.11 µg/mL
- Activity (Aspergillus flavus [34]): Active
- Activity (Aspergillus terreus [35]): inactive
- Activity (Aspergillus flavus [36]): 16%
- Activity (Aspergillus flavus [37]): inactive
- Activity (Aspergillus terreus [38]): inactive
- Activity (Aspergillus flavus [39]): Active
- EC5 (Aspergillus terreus [40]): 0.01 µg/mL
- Ratio (Aspergillus fumigatus [41]): 2
- Activity (Aspergillus terreus [42]): 44%
- minimal effective concentration (Aspergillus fumigatus [43]): 0.12 µg/mL
- Activity (Aspergillus terreus [44]): inactive
- Activity (Aspergillus flavus [45]): inactive
- EC5 (Aspergillus flavus [46]): 0.09 µg/mL
- Activity (Aspergillus terreus [47]): Active
- Activity (Aspergillus terreus [48]): inactive
- Activity (Aspergillus fumigatus [49]): inactive
- Activity (Aspergillus fumigatus [50]): inactive
- Activity (Aspergillus fumigatus [51]): 26%
- Activity (Aspergillus fumigatus [52]): inactive
- minimal effective concentration (Aspergillus fumigatus [53]): 0.03 µg/mL
- EC5 (Aspergillus flavus [54]): 0.01 µg/mL
